Among the data in BindingDB's records for patent US12344595 (Merck Sharp & Dohme, 2025) are IC50 values, retold here.

Usually IC50 stands for the point on the concentration scale where inhibition reaches its midpoint.

For the assay, the target named is Sodium channel protein type 10 subunit alpha (Homo sapiens, UniProt Q9Y5Y9). Put plainly: Not found.
Description: Not found

Sodium channel protein type 10 subunit alpha, sequence (Q9Y5Y9 whole entry): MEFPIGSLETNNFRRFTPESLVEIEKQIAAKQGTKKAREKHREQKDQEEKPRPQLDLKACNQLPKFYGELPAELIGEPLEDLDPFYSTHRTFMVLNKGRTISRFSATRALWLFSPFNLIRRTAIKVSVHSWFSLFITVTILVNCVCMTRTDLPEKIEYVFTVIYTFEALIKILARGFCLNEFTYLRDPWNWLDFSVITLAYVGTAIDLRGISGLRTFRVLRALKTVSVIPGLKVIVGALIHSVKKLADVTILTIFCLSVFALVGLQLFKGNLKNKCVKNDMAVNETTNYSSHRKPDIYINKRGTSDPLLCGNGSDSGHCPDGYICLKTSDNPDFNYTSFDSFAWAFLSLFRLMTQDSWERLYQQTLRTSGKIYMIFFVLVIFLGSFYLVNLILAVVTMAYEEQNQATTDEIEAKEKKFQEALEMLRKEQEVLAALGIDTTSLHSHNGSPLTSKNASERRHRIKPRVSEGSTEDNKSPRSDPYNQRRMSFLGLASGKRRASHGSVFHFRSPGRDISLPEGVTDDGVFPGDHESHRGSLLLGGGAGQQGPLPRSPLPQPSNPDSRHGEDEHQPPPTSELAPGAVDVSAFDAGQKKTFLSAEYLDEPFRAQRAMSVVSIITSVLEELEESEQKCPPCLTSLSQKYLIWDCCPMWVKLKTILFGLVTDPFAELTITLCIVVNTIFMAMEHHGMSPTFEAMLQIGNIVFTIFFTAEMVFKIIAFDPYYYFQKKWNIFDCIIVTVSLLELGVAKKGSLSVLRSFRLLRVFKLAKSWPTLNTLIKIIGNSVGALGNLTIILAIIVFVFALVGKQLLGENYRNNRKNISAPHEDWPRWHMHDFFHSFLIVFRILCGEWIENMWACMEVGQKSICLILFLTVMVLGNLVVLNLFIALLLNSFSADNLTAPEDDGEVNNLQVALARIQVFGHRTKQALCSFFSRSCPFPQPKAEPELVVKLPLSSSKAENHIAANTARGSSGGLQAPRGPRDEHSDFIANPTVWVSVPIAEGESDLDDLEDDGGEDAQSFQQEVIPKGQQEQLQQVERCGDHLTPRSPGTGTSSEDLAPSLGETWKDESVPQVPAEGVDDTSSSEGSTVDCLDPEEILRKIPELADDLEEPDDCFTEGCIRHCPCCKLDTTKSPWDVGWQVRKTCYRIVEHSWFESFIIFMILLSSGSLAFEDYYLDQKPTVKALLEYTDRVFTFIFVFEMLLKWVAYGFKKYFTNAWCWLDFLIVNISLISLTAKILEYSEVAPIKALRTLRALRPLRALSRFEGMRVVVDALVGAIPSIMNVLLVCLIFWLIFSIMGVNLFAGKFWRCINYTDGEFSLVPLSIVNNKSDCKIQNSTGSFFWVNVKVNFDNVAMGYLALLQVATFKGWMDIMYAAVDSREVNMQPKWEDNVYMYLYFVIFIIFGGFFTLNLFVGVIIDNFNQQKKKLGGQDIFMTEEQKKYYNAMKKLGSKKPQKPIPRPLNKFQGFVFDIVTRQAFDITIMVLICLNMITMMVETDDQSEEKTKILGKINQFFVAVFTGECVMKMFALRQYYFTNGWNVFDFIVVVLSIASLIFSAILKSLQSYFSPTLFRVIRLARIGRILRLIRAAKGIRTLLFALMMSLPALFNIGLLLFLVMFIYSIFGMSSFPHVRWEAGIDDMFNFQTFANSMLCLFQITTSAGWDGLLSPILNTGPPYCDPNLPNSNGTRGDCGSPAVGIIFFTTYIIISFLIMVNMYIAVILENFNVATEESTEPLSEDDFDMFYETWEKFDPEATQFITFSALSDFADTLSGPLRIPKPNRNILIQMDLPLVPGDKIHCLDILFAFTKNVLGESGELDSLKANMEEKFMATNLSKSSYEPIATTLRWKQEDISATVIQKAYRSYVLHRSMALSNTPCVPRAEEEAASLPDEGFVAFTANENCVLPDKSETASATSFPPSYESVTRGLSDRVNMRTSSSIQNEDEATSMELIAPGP

The molecule `Cc1nc(N2CCC(F)(F)C2)c(C(=O)Nc2cccc(S(N)(=O)=O)c2)c(C)c1Cl` [US12344595, Example 5] returned an IC50 of 49 nM.
